The term IC50 denotes the concentration needed to halve the response being measured. In general, inhibition refers to how much of the control response was suppressed. Low readings indicate a response near the control, high ones a response far below the control.

Assay [1] deals with human colon cancer cell SW620. The experiment in a line: MTT assay, growth of SW620 cells, compounds combined with CPT-11. In kind it is cell-based. The note with it: Homo sapiens, SW-620, 120 h; 205 nM CPT-11, 5 days, MTT. As to the method:
(§1) SW620 cells were digested by trypsinase, centrifuged at 800 rpm for 5 minutes, the supernatant was discarded, resuspended with fresh medium (RPMI 1640 medium+10% FBS) and counted. The cells were seeded into 96-well cell culture plate with appropriate cell density and incubated overnight in a 37° C. 5% CO2 incubator. The stock solutions of the tested compound and the reference compound AZD0156 were serially diluted to 8 concentrations by DMSO at the ratios of 1:3 and 1:10, respectively, and the last concentration was negative control of DMSO (0 μM, the final concentration of DMSO was 1%). 5 μL of each concentration was added to 120 μL of medium (25 times diluted) and mixed by shaking. The overnight cells were taken and the culture medium was removed, 195 μL of fresh medium containing 205 nM CPT-11 was added to each well, and 5 μL of diluted medium containing the corresponding concentration of the tested sample was added respectively, and the culture plate was then placed in the 5% CO2 cell culture incubator at 37° C. for 5 days. After removing the original solution, 100 μL of fresh serum-free DMEM medium containing MTT (0.5 mg/mL) was added to each well, the culture was continued. After 4 hours, the original solution was removed, 100 μL of DMSO was added into each well, the 96-well plates were shaken away from light for 10 minutes and placed in a multi-function reader to read the absorbance at the wavelength of 552/630/690 nm. GraphPad Prism 6.0 was used to analyze the data. The inhibitory activity of compounds on cell proliferation was plotted based on cell viability and compound concentration. The IC50 value was fitted by a sigmoidal dose response curve equation Y=100/(1+10^(Log C−Log IC50)), where C was the concentration of compound.
(In general: Tetrazolium dyes change colour on reduction, which living cells bring about.)

The target in the next assay is ATM enzyme (human) (Homo sapiens, UniProt Q13315). Put plainly: ATM kinase assay (HTRF, phosphorylation of GST-cMyc-p53). The format is biochemical. Conditions: for inhibition at 1 µM: detected concentration 1 μm. As to the method:
ATM enzyme (human) was added to the reaction solution containing 30 nM GST-cMyc-p53 and 10 μM Mg/ATP, and then 50 times the concentration of the tested compound (or reference compound AZD0156) dissolved in 100% DMSO was added to the final concentration of 10 μM/1 μM/0.1 μM/0.01 μM. The reaction was initiated by the addition of a Mg/ATP mixture and incubation for 30 minutes at room temperature, the reaction was quenched by the addition of a stop solution containing EDTA. Finally, the detection buffer containing the d2-labeled anti-GST monoclonal antibody and the europium-labeled anti-phospho p53 (Ser15) antibody was added. The plate was then read in time resolved fluorescence mode and the homogeneous time resolved fluorescence (HTRF) signal was determined according to the equation: HTRF=10000×(Em665nm/Em620nm). Each compound sample was repeated in duplicate. The negative control contained all components except the ATM enzyme, and the positive control contained all components. All reactions were quenched by adding EDTA.
The compounds were serially diluted to 10 concentrations with 100% DMSO at the ratio of 1:3 and 1:10 (the last concentration was negative control of DMSO), then added to the ATM buffer and diluted to a final concentration of 10, 3, 1, 0.3, 0.1, 0.03, 0.01, 0.003, 0.001 and 0 μM, respectively. ATM kinase inhibition was detected by using the method described above. The curve equation for calculating IC50 value is as follows: […]
wherein, C is the concentration of compound and D is the slope factor. Table 2 summarizes the IC50 values of compounds inhibiting ATM kinase.

The subject of assay [2] is human breast cancer cell MDA-MB-468. Put plainly: MTT assay, growth of MDA-MB-468 cells. The format is cell-based. The note with it: Homo sapiens, MDA-MB-468, 168 h; single agent, 7 days, MTT. As to the method: as §1, with “MDA-MB-468 cells” for “SW620 cells”, “1:10, respectively:” for “1:10, respectively, and”, “medium (PRMI 1640+5% FBS)” for “medium containing 205 nM CPT-11”, “for 7 days (On the fourth day, the medium containing drugs was removed and fresh medium containing drugs was added for continuous cultivation).” for “for 5 days.”

Bounds are passed on as bounds.

Sequence of ATM enzyme (human) (Q13315 whole entry): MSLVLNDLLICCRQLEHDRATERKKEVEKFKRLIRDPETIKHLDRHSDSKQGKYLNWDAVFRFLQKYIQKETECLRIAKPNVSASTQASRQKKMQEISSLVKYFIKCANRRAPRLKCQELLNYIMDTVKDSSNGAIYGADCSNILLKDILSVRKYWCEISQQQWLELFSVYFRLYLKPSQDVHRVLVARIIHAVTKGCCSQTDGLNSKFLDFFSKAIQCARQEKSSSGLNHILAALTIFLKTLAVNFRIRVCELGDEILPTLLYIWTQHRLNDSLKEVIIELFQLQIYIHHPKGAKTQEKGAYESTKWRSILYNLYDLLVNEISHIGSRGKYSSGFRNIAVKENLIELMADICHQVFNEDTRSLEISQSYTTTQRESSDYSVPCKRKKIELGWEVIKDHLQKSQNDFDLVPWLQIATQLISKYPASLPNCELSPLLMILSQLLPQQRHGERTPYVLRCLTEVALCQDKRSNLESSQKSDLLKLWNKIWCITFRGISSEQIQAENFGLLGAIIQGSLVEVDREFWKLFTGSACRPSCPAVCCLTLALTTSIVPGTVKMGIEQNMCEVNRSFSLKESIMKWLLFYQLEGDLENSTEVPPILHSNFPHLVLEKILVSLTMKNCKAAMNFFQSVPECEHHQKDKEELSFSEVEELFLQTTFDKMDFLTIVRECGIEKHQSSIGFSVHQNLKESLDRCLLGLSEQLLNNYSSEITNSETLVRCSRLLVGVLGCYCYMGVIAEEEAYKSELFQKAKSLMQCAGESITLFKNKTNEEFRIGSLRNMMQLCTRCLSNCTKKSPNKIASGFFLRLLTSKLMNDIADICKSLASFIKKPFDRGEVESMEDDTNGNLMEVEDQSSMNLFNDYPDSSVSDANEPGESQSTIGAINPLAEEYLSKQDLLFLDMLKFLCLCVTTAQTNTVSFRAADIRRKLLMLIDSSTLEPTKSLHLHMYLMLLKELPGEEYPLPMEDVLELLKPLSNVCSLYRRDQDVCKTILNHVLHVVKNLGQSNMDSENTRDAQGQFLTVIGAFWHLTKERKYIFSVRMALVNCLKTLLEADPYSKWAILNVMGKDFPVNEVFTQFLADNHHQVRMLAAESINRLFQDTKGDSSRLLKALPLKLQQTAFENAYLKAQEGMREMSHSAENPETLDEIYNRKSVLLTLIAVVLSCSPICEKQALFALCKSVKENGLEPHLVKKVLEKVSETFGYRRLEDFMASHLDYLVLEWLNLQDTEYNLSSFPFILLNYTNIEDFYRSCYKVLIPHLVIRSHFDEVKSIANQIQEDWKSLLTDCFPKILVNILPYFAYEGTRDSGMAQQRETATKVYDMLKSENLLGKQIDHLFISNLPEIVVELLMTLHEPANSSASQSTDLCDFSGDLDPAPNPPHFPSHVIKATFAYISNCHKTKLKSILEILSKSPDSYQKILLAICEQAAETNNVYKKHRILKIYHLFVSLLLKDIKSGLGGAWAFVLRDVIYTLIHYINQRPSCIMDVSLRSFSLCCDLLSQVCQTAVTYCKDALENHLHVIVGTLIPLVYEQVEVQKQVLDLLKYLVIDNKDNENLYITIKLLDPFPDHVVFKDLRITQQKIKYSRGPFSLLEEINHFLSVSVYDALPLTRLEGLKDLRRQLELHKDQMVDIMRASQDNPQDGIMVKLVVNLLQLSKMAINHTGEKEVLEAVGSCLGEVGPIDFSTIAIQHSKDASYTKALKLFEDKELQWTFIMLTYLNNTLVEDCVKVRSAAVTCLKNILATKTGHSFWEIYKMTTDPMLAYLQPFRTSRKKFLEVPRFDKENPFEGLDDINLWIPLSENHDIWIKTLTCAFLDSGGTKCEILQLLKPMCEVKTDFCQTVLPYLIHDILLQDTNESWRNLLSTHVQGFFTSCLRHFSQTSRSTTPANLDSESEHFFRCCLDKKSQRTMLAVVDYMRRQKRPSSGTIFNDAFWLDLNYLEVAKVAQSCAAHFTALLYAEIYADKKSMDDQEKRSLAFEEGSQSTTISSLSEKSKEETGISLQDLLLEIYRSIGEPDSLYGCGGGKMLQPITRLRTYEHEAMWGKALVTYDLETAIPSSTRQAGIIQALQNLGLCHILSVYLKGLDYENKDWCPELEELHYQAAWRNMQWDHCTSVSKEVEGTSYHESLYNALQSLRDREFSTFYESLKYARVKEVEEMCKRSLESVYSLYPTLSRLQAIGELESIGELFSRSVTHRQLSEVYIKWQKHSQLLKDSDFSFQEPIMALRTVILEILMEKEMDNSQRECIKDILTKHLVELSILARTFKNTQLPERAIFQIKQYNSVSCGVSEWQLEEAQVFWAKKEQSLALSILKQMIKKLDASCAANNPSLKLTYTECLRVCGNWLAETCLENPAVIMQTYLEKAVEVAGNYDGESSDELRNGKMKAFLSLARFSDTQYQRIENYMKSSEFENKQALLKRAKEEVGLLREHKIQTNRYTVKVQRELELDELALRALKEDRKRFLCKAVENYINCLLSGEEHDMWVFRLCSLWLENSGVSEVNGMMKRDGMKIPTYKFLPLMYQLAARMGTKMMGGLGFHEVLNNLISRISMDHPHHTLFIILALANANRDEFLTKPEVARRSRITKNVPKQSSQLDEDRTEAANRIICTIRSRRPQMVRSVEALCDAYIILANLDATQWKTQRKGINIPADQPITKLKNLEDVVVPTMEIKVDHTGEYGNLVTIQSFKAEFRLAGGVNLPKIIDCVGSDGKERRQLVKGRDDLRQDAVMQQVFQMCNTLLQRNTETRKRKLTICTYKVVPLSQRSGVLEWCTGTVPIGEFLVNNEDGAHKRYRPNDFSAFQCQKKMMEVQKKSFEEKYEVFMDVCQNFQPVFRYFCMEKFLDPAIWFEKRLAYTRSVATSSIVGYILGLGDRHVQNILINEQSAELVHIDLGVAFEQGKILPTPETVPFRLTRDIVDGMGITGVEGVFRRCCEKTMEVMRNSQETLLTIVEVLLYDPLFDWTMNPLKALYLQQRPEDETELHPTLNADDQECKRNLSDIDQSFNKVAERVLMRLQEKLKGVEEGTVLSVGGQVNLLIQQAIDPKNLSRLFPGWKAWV

`CN(C)CCCOc1ccc(-c2ccc3nc4cccc(C5=CCOCC5)c4n3c2)cn1` [Example 1, N,N-dimethyl-3-((5-(9-(3,6-dihydro-2H-pyran-4-yl)benzo[4,5]imidazo[1,2-a]pyridin-2-yl)pyridin-2-yl)oxy)propan-1-amine]: the IC50 in assay [1] amounted to 1.34 µM; on ATM enzyme (human) (10 concentrations, 10 to 0.001 μM, read-out: IC50 (nM), in vitro inhibitory effect on ATM kinase), 239 nM; in assay [2], 2.8 µM. On ATM enzyme (human) (0.5 h, detected concentration 10 μm), this compound gave an inhibition at 10 µM of 100%. Moreover, the “effect on ATM kinase (in words)” value at ATM enzyme (human) (ATM kinase (human) assay) is given as “good effect”.
Take `C[C@@H]1CN(c2cccc3nc4ccc(-c5ccc(OCCCN(C)C)nc5)cn4c23)C[C@H](C)N1C` [Example 8, N,N-dimethyl-3-((5-(9-((3S,5R)-3,4,5-trimethylpiperazin-1-yl)benzo[4,5]imidazo[1,2-a]pyridin-2-yl)pyridin-2-yl)oxy)propan-1-amine]: the IC50 in assay [1] amounted to 0.434 µM; in assay [2], 0.0251 µM. The inhibition at 1 µM against ATM enzyme (human) (0.5 h) was determined as 99%.
The matching figures for `CN(C)CCCOc1ccc(-c2ccc3nc4cccc(-n5ccnc5)c4n3c2)cn1` [Example 9, N,N-dimethyl-3-((5-(9-(1H-imidazol-1-yl)benzo[4,5]imidazo[1,2-a]pyridin-2-yl)pyridin-2-yl)oxy) propan-1-amine]: 9.31 µM, 3.66 µM and 60%.
Regarding `CN(C)CCCOc1ccc(-c2ccc3nc4cccc(CN5CCOCC5)c4n3c2)cn1` [Example 10, N,N-dimethyl-3-((5-(9-(morpholinomethyl)benzo[4,5]imidazo[1,2-a]pyridin-2-yl)pyridin-2-yl)oxy)propan-1-amine], the IC50 in assay [1] and in assay [2] was more than 10 µM throughout. This compound registered an inhibition at 1 µM at ATM enzyme (human) (0.5 h) of 77%.
Take `CN(C)CCCOc1ccc(-c2ccc3nc4cccc(OC5CCN(C)CC5)c4n3c2)cn1` [Example 12, N,N-dimethyl-3-((5-(9-((1-methylpiperidin-4-yl)oxy)benzo[4,5]imidazo[1,2-a]pyridin-2-yl)pyridin-2-yl)oxy)propan-1-amine]: the figures for the IC50 in assay [1] and in assay [2] were 0.528 µM and 0.703 µM, respectively. On ATM enzyme (human) (0.5 h), this compound displayed an inhibition at 1 µM of 88%.
As for `CN(C)CCCOc1ccc(-c2ccc3nc4cccc(NC5CCN(C)CC5)c4n3c2)cn1` [Example 15, N,N-dimethyl-3-((5-(9-(1-methylpiperidin-4-ylamino)benzo[4,5]imidazo[1,2-a]pyridin-2-yl)pyridin-2-yl)oxy)propan-1-amine], the IC50 in assay [1] is 2.42 µM; in assay [2], more than 10 µM. At ATM enzyme (human) (0.5 h), this compound yielded an inhibition at 1 µM of 39%.
Turning to `CN1CCN(c2ccc(-c3cccc4nc5ccc(N6CCOCC6)cc5n34)cn2)CC1` [Example 16, 1-(6-(4-methylpiperazin-1-yl)pyridin-3-yl)-8-morpholinobenzo[4,5]imidazo[1,2-a]pyridine], the IC50 in assay [1] and in assay [2] was more than 10 µM throughout. Moreover, the inhibition at 1 µM at ATM enzyme (human) (0.5 h) was 53%.
Take `C[C@@H]1CN(c2ccc(-c3cccc4nc5ccc(N6CCOCC6)cc5n34)cn2)C[C@H](C)N1C` [Example 17, 1-(6-((3S,5R)-3,4,5-trimethylpiperazin-1-yl)pyridin-3-yl)-8-morpholinobenzo[4,5]imidazo[1,2-a]pyridine]: the results for the IC50 in assay [1] and in assay [2] were 3.25 µM and 2.62 µM, respectively. At ATM enzyme (human) (0.5 h), this compound yielded an inhibition at 1 µM of 37%.
In the case of `CN(C)C1CCN(c2ccc(-c3ccc4nc5cccc(N6CCOCC6)c5n4c3)cn2)CC1` [Example 42, N,N-dimethyl-1-(5-(9-morpholinobenzo[4,5]imidazo[1,2-a]pyridin-2-yl)pyridin-2-yl)piperidin-4-amine], the 50% inhibitory concentration (IC50) came to 2.1 µM in assay [1] and 2.4 µM in assay [2]. Testing at 1 µM against ATM enzyme (human) (0.5 h) gave an inhibition of 88%.
As to `CN1CCN(c2cccc3nc4ccc(-c5ccc(N6CCC(N(C)C)CC6)c(C(F)(F)F)c5)cn4c23)CC1` [Example 43, N,N-dimethyl-1-(2-(trifluoromethyl)-4-(9-(4-methylpiperazin-1-yl)benzo[4,5]imidazo[1,2-a]pyridin-2-yl)-phenyl)piperidin-4-amine], the IC50 in assay [1] turned out to be 1.05 µM; in assay [2], 0.542 µM. At ATM enzyme (human) (0.5 h), this compound returned an inhibition at 1 µM of 99%.
